Source: patent US8778400B2, “Nanoparticle-stabilized capsule formulation for treatment of inflammation” (University of South Australia, priority 2008, dated 2014)
Values after ≈ are worked out from the molar mass of the structure shown.

Tests used:
[1] = In vitro dissolution of indomethacin under sink conditions (USP paddle); assay type: physicochemical; settings: 25 mg indomethacin, phosphate buffer pH 7.2, sink conditions
Experimental: DSC was performed using TA Instruments Q100 differential scanning calorimeter. A 15 mg sample was heated in an aluminium pan at a rate of […] over a temperature range of 25-200° C., under a flow of dry nitrogen gas (80 ml/min). Instrument calibration was undertaken using an indium standard. Powder XRD patterns were obtained using Philips (PW 1050/25) X-ray diffractometer with CoKα radiation (45 kV, 35 mA). The samples were scanned between 10-50° (2θ) at a rate of 1.0°/min. […] The HPLC system (Hewlett Packard 1100) consisted of a series […] auto sampler and G1314A variable UV detector (Shimadzu Corporation). Separation was achieved using a LiChrospher 100 RP-18 analytical column (5 μm, 100 mm×4.6 mm i.d.). […] All chromatographic separations were performed at room temperature at a flow rate of 1 mL/min. The column eluent was monitored at a wavelength of 320 nm. […] The dissolution tests under sink conditions were performed using a USP paddle system (Vankel) and kept at a controlled 37° C. […] The paddle was rotated at 50 rpm. Samples (5 mL) were taken every 15 minutes for 3 h. […] The samples were measured using HPLC. […] With the conventional assumption that the rate and extent of drug dissolution directly reflects the concentration of readily absorbable drug in the intestinal lumen, it is proposed that capsules have the potential to enhance the oral absorption process. […]

prostaglandin E2 = settings: reported for humans, based on inhibitory effect on prostaglandin E2; cited from earlier work
[2] = Distribution ratio of celecoxib in Miglyol oil and phosphate buffer; assay type: physicochemical; settings: Miglyol oil and blank phosphate buffer
[3] = Solubility of celecoxib in Miglyol oil; assay type: physicochemical; settings: oil or lipid
[4] = Equilibrium solubility of celecoxib in phosphate buffer containing SLS; assay type: physicochemical; settings: for folds of saturation volume (FSV): 900 ml media for 2 mg celecoxib; for solubility thermodynamic at 48 h: phosphate buffer, 37 °C, thermodynamic from solid
Experimental: The mixture was shaken in a thermostated mixer chamber (37° C.) for 48 h. Equilibrated samples were centrifuged at 9,400 g for 15 min to remove undissolved materials. The amount of celecoxib dissolved was assayed using the HPLC method outlined above.

[5] = cited from earlier work
[6] = In vitro dissolution study of celecoxib formulations (USP type II paddle); assay type: physicochemical; settings: phosphate buffer, 0.5% SLS, 37° C.
Experimental: The in vitro dissolution study was performed in 900 ml of phosphate buffer (0.05 M, pH 7.2) containing 0, 0.05, and 0.5% (w/v) SLS, using USP 23 type II apparatus (paddle method) operating at 75±0.02 rpm. Each sample, containing ˜2 mg of celecoxib (equivalent to the amount used in the in vivo studies), was added into the dissolution medium maintained at 37±0.5° C. Aliquots of 3 ml were drawn at fixed time points and replaced with an equal volume of fresh dissolution medium. The drawn samples were centrifuged at 9,400 g for 15 min to remove undissolved materials. The supernatant was subjected to another cycle of centrifugation under the same conditions. An aliquot of 100 μl was taken from the middle portion of each centrifuged samples before diluted 2-fold with acetonitrile. […] The amount of celecoxib dissolved in the dissolution media was analysed by HPLC as described previously.
SLS was employed as a wetting and solubilising agent in the dissolution medium for simulating the sink effect in the gastrointestinal tract. The dissolution profiles of celecoxib from various formulations are illustrated in FIG. 3. […] The influence of silica nanoparticle layers of different hydrophobicity in controlling drug release from homogenised liquid emulsions has been previously investigated (Simovic et al., 2007). Here, the dissolution profiles of celecoxib from spray-dried capsules formulated with hydrophilic silica were obtained. Two dissolution parameters were evaluated from the study employing sink conditions: the dissolution efficiency (% DE), and the time to achieve 50% of drug dissolution (t50%) (Table 2). % DE is the area under the dissolution curve between two specified time points expressed as a percentage of the area of the rectangle described by 100% dissolution in the same time intervals, which can be calculated using Eq. (II): […]

[7] = after oral delivery; cited from earlier work

SMILES	t50% (time taken to achieve 50% of drug dissolution) [1] [min]	minimum effective pain-relieving plasma concentration (prostaglandin E2) [ng/mL]	distribution ratio (log D) [2]	solubility [3] [µg/mL]	folds of saturation volume (FSV) ([4]; 0% SLS)	folds of saturation volume (FSV) ([4]; 0.05% SLS)	folds of saturation volume (FSV) ([4]; 0.25% SLS)	folds of saturation volume (FSV) ([4]; 0.5% SLS)	folds of saturation volume (FSV) ([4]; 1.0% SLS)	solubility thermodynamic at 48 h ([4]; pH 7.2, aqueous buffer, phosphate buffer pH 7.2, 0% SLS) [µg/mL]	solubility thermodynamic at 48 h ([4]; pH 7.2, aqueous with cosolvent or surfactant or cyclodextrin, 0.05% SLS) [µg/mL]	solubility thermodynamic at 48 h ([4]; pH 7.2, aqueous with cosolvent or surfactant or cyclodextrin, 0.25% SLS) [µg/mL]	solubility thermodynamic at 48 h ([4]; pH 7.2, aqueous with cosolvent or surfactant or cyclodextrin, 0.5% SLS) [µg/mL]	solubility thermodynamic at 48 h ([4]; pH 7.2, aqueous with cosolvent or surfactant or cyclodextrin, 1.0% SLS) [µg/mL]	log P [5]	t50% (time to achieve 50% of drug dissolution) [6] [min]	Dissolution efficiency (% DE) ([6]; t = 5 min) [%]	Dissolution efficiency (% DE) ([6]; t = 15 min) [%]	Dissolution efficiency (% DE) ([6]; t = 180 min) [%]	Tmax [7]
COc1ccc2c(c1)c(CC(=O)O)c(C)n2C(=O)c1ccc(Cl)cc1 [Indomethacin, 1-(4-chlorobenzoyl)-5-methoxy-2-methyl-1-H-indole-3-acetic acid]	58.8 ± 0.5																			
Cc1ccc(-c2cc(C(F)(F)F)nn2-c2ccc(S(N)(=O)=O)cc2)cc1 [celecoxib, 4-[5-(4-methylphenyl)-3-(trifluoromethyl)pyrazol-1-yl]benzenesulfonamide]		~155	3.7	~10000 (≈ 26200 µM)	0.9	1.0	1.4	3.6	53.6	2.11 ± 0.01 (≈ 5.53 µM)	2.33 ± 0.15 (≈ 6.11 µM)	3.2 ± 0.16 (≈ 8.39 µM)	8 ± 0.39 (≈ 21 µM)	119 ± 29 (≈ 312 µM)	≈ 3.5	144.8	8.9 ± 1	24.3 ± 5	48.9 ± 3	approximately three
